pEC50: −log10 of the molar value. Like-named read-outs stand apart in the source and are kept apart here. Blank lines part the entries; values can stand above or below the molecule they belong to.
How the values were obtained:
[1] = target: T1, ecNOS (Bos taurus, UniProt P29473); assay: ecNOS activity from intimal scrapings of fresh bovine aortae (conversion of [3H]-L-arginine to [3H]-L-citrulline); type: biochemical; settings: ecNOS (Table 2); read-out: EC50 for inhibition of ecNOS activity in tissue homogenates
T1 construct: the intimal surface of fresh bovine aortae was scraped and homogenized; from tissue; host or cells: homogenate of intimal scrapings of fresh bovine aortae
Method: The intimal surface of fresh bovine aortae was scraped in the presence of homogenation buffer composed of 50 mM Tris-HCl, 0.1 mM ethylenediamine tetraacetic acid (EDTA) and 0.1 mM ethyleneglycol bis (beta-aminoethyl ether) (EGTA). Conversion of [^3 H]-L-arginine to [^3 H]-L-citrulline was measured in the homogenates as follows: cell homogenate (50 μl) was incubated in the presence of [^3 H]-L-arginine (10 μM, 5 kBq/tube), NADPH (2 mM), calmodulin (30 nM), tetrahydrobiopterin (5 μM) and calcium (2 mM) for 20 minutes at 37° C. in N-2-hydroxethyl piperazine-N-2-ethane sulfonic acid (HEPES) buffer (pH 7.5). Reactions were stopped by dilution with 1 ml of ice cold HEPES buffer (pH 5.5) containing EGTA (2 mM) and EDTA (2 mM). Reaction mixtures were applied to Dowex 50W (Na^+ form) columns and the eluted [^3 H]-L-citrulline activity was measured by scintillation counting. bNOS activity was measured using similar methods in homogenates of whole rat brains.
For a preparation rich in ecNOS, the intimal surface of fresh bovine aortae was scraped and homogenized. The homogenization buffer was composed of 50 mM tris-HCL, 0.1 mM EDTA, 0.1 mM EGTA and 1 mM phenylmethylsulfonyl chloride (pH 7.4). Cell suspensions were homogenized in the homogenization buffer on ice using a Tissue Tearor 985-370 homogenizer (BioSpec Products, Racine, Wis.). Conversion of [^3 H]-L-arginine to [^3 H]-L-citrulline was measured in the homogenates as described in Example 3 above.

[2] = tested on: J774 macrophages; assay: Nitrite production by immunostimulated J774 macrophages (endotoxin 24 h, Griess); type: cell-based, mouse; settings: Mus musculus, read-out: EC50 for the inhibition of nitrite production by stimulated J774 macrophages
Method: This example illustrates the effect of selected mercapto derivatives on endotoxin-induced nitrite formation in J774.2 macrophages and on IL-1 gamma-interferon induced nitrite formation in cultured rat arctic smooth muscle cells. J774 macrophage cell lines were obtained from the American Type Culture Collection (ATCC) and were grown using standard methods in Dulbecco's Modified Eagle Medium (DMEM) supplemented with 10% fetal bovine serum, glutamine, penicillin (10,000 U/l) and streptomycin (10,000 U/l). Rat aortic smooth muscle cells (RASM) from Wistar rats were isolated by enzymatic dissociation using standard methods. The cells were positively identified as smooth muscle by indirect immunofluorescent staining for a-actin, using mouse anti-α-actin antibody and anti-mouse IgG fluorescein isothiocyanate (FITC) conjugate. RASM cells were grown in T-75 tissue culture flasks in 50% F12 nutrient medium and 50% Dulbecco's Modified Eagle Medium supplemented with 10% fetal bovine serum, glutamine, penicillin (10,000 U/l) and streptomycin (10,000 U/l). Cells were grown in 96-well plates for measure of nitrite production and cell viability. J774 macrophages were treated with endotoxin (10 μg/ml) for 24 hours; smooth muscle cells were treated with IL-1 (100 U/ml) and gamma-interferon (50 U/ml) for 48 hours.
Concentration of nitrite, the degradation product of NO in the culture medium, was determined by mixing equal volumes of medium with the Griess reagent (1% sulfanilamide/0.1% naphthylethylenediamine dihydrochloride/2.5% H3 PO4). The mixture was incubated for 10 minutes at room temperature to form the chromophore, then optical densities (OD) were determined at 550 nm (OD550). NaNO2 was used as the standard. Spectrophotometric measurements were performed in a dual-wavelength spectrophotometer.

[3] = target: T2, iNOS (Rattus norvegicus, UniProt Q06518); assay: Inhibition of iNOS activity in tissue homogenates (Table 2); type: biochemical; design: bNOS in tissue homogenates; from tissue; host or cells: tissue homogenate; settings: iNOS (Table 2)
[4] = target: T3, bNOS (Rattus norvegicus, UniProt P29476); assay: bNOS activity in homogenates of whole rat brains; type: biochemical; settings: bNOS (Table 2); read-out: EC50 for inhibition of bNOS activity in tissue homogenates
T3 construct: bNOS activity was measured using similar methods in homogenates of whole rat brains; from tissue; host or cells: homogenate of whole rat brains

[5] = tested on: constitutive and inducible NOS isoforms; settings: background literature; cited from earlier work
[6] = target: T2, iNOS; assay: iNOS activity in lung homogenates from rats treated with bacterial endotoxin; type: biochemical; design: Lungs were obtained from rats which had been treated with bacterial endotoxin; from tissue; host or cells: lung homogenate from endotoxin-treated rats
Method: This Example illustrates the effect of selected mercapto and seleno derivatives on iNOS activity in lung homogenates prepared from rats treated with endotoxin. […] The homogenization buffer was composed of 50 mM tris-HCL, 0.1 mM EDTA, 0.1 mM EGTA and 1 mM phenylmethylsulfonyl chloride (pH 7.4). Cell suspensions were homogenized in the homogenization buffer on ice using a Tissue Tearor 985-370 homogenizer (BioSpec Products, Racine, Wis.).

[7] = tested on: J774.2 macrophages; assay: Nitrite production in immunostimulated J774.2 macrophages (E.coli LPS + murine gamma-interferon, 24 h); type: cell-based, mouse; settings: Mus musculus
Method: This example illustrates the effect of selected mercapto and seleno derivatives on nitrite production in J774.2 immunostimulated macrophages. The J774.2 mouse macrophage cell line was obtained from the ATCC and was cultured in DMEM with 4×10^-3 M L-glutamine and 10% fetal calf serum. Cells were cultured in 96-well plates with 200 μl culture medium until they reached 60-80% confluence. To induce INOS, fresh culture medium containing E.coli LPS (10 μg/ml) and murine gamma-interferon (IFN)(50 U/ml) was added. Nitrite accumulation in the cell culture medium in the absence or presence of various inhibitors was measured after 24 hours. Nitrite production, an indicator of NO synthesis, was measured in the supernatant of J774.2 macrophages by the Greiss reaction as described in Example 1 above.
This Example illustrates the effect of selected seleno derivatives on endotoxin-induced nitrite formation in J774.2 macrophages. The mouse macrophage cell line J774.2 obtained from the ATCC was cultured in DMEM with 4×10^-3 M L-glutamine and 10% fetal calf serum. Cells were cultured in 96-well plates with 200 μl culture medium until they reached 60-80% confluence. To induce iNOS, fresh culture medium containing E.coli LPS (10 μg/ml) and murine gamma-interferon (IFN)(50 U/ml) were added. Nitrite accumulation in the cell culture medium in the absence or presence of various inhibitors was measured after 24 hours. There was no detectable nitrite production by the J774.2 macrophages in the absence of immunostimulation. However, in the presence of IFN and LPS, nitrite concentration of the medium increased to 17±2 μM in the absence of inhibitor.

[8] = Mean arterial blood pressure in normal anesthetized rats; type: in vivo, Male Wistar rats; settings: i.v. or i.p.

T3 sequence (P29476 whole entry): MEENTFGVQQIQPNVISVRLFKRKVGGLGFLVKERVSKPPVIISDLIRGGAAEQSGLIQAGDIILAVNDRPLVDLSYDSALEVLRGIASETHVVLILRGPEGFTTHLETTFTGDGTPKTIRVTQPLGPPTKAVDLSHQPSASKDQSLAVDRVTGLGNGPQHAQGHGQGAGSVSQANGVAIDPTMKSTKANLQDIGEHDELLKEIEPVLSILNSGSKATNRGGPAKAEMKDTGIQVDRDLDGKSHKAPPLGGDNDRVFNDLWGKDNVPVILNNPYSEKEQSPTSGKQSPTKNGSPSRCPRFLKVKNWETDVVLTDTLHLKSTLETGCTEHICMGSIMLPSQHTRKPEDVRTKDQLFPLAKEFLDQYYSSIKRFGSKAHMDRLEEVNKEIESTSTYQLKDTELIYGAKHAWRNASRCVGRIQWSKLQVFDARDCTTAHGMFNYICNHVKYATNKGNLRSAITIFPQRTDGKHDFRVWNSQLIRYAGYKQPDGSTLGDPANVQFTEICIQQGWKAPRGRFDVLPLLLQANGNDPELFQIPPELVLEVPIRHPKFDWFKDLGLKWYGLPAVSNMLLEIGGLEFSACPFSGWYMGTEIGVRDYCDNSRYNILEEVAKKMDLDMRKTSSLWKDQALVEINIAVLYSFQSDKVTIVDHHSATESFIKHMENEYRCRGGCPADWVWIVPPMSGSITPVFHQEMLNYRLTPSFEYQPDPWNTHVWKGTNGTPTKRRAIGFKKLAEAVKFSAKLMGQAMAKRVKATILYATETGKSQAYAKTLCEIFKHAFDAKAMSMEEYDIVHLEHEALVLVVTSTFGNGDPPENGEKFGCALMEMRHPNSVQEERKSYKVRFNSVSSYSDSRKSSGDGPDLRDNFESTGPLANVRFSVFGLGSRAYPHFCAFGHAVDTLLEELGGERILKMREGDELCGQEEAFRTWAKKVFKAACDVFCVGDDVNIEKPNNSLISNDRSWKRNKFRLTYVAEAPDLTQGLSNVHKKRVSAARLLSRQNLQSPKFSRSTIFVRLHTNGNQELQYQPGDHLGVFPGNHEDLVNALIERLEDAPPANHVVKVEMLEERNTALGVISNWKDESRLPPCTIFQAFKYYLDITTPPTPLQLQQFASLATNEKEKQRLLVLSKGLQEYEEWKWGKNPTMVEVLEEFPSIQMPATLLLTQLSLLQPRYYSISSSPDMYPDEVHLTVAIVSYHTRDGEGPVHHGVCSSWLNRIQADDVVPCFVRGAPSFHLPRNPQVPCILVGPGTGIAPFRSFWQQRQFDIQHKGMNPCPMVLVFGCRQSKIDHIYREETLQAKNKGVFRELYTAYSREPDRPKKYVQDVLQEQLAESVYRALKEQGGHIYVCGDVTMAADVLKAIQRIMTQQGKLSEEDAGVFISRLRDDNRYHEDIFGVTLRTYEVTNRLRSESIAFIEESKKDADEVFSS

Structure (SMILES): N=C(N)NN [Aminoguanidine, reference compound]
pEC50 [1]: 2.59 | pEC50 ([2]; J774, 24 h): 3.92 | pEC50 [3]: 4.10 | pEC50 [4]: 3.66 | NOS inhibition / isoform selectivity, in words [5]: selectively inhibit the inducible isoform of nitric oxide synthase

pEC50 ([7]; J774.2, IFN and LPS, Example 9, read-out: EC50, inhibition of nitrite production): 4.05 | pEC50 [3]: 4.77
Structure (SMILES): CNC(=N)NCCC[C@H](N)C(=O)O [L-NMA, N^G -Methyl-L-arginine, reference compound]
iNOS ACTIVITY (%) ([6]; inhibitor concentration -3.000 log M): 18.000% | iNOS ACTIVITY (%) ([6]; inhibitor concentration -4.000 log M): 40.00% | iNOS ACTIVITY (%) ([6]; inhibitor concentration -5.000 log M): 100.000% | iNOS ACTIVITY (%) ([6]; inhibitor concentration -6.000 log M): 100.000% | iNOS ACTIVITY (%) ([6]; inhibitor concentration -7.000 log M): 100.000% | inhibition of iNOS activity, in words ([6]; lung homogenates, rats treated with endotoxin): somewhat similar in their inhibitory effect on INOS activity | pEC50 ([2]; J774, endotoxin 10 μg/ml, 24 h (Table 1)): 3.80 | activity at 1000 µM ([7]; J774.2, 24 h, inhibitor concentration -3.000 log M (Table 3), read-out: NITRITE (% OF CONTROL)): 12.6% | activity at 100 µM ([7]; J774.2, 24 h, inhibitor concentration -4.000 log M (Table 3), read-out: NITRITE (% OF CONTROL)): 45% | activity at 10 µM ([7]; J774.2, 24 h, inhibitor concentration -5.000 log M (Table 3), read-out: NITRITE (% OF CONTROL)): 73.5% | activity at 1 µM ([7]; J774.2, 24 h, inhibitor concentration -6.000 log M (Table 3), read-out: NITRITE (% OF CONTROL)): 95% | mean arterial blood pressure (MAP) response [8]: pronounced and dose-dependent pressor response

From patent US5929063A, “Mercapto and seleno derivatives as inhibitors of nitric oxide synthase” (priority 1995, dated 1999)
